From ChEMBL document CHEMBL1201862, “PubChem BioAssay data set” (2004) come the findings set out here.

Calls of active or inactive are those of the source. Bounds are passed on as bounds.

The term AC50 denotes the concentration at which the activity in the assay is half-maximal.

Assay [1] has as its target T1, Ubiquitin-conjugating enzyme E2 N (Homo sapiens, UniProt P61088).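 Note: Dose-response confirmation in a TR-FRET assay detecting UBC13-driven polyubiquitin chain formation, inhibition measured.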
T1 sequence (P61088 whole entry): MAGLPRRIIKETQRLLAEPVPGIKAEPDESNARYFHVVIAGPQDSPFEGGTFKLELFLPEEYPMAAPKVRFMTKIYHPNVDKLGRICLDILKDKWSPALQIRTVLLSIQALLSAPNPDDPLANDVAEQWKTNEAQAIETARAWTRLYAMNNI
The class given is functional.

A short description of assay [2]: NIH3T3 cell viability loss – ATP luminescence, mouse fibroblasts, counter-screen, dose response (AID 2010).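 Note: cells exposed to compound for about 90 hours before reading.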 The format is functional, cell-based. (In general: A counterscreen serves to expose hits that act by an unwanted route or on another target.)
Assay [3] is described as follows: Trypanosoma cruzi growth suppression in host cells – NIH3T3 host cells, beta-gal luminescence, confirmation (AID 2044).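 Note: intracellular parasites grown in NIH/3T3 mouse fibroblasts as host cells; luminescent beta-galactosidase reporter signal from transgenic T. cruzi replicating inside host cells; inhibitors lower the luminescence signal.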 The class given is functional, cell-based.
The nature of assay [4]: toxicity toward HepG2 liver cells – cell-based, plate reader, cherry-pick, antagonist series, cytotoxicity control, dose response (AID 743416). The format is functional.
Assay [5] in a line: intracellular Trypanosoma cruzi inhibitors in host cells – cell-based, plate reader, cherry-pick samples, set 3, dose response (AID 651818).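 Note: compounds incubated with infected cells for about four days.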 The format is functional.
Another assay is described as follows: cells. The class given is functional.
Assay [6] concerns the target Luciferin 4-monooxygenase (Photinus pyralis, UniProt P08659). In words: inhibition of purified Photinus pyralis luciferase – biochemical, luminescence, dose response (AID 1891).
Assay [7] in a line: Luminescence Cell-Based Dose Confirmation HTS to Identify Inhibitors of Platelet Dense Granule Release. [Related pubchem assays: 1663 (Primary HTS), 1678 (Summary of Project)]. The format is functional.
Assay [8] is described as follows: P. falciparum Dd2 growth inhibitors, dose response, SYBR Green, cherry-picked samples (AID 1159567). The class given is functional, cell-based.
The target in assay [9] is FAD-linked sulfhydryl oxidase ALR (Homo sapiens, UniProt P55789). In words: ALR-catalysed DTT oxidation blockers – biochemical, H2O2 detection, luminescence, cherry-pick, dose response (AID 493248).
Sequence of FAD-linked sulfhydryl oxidase ALR (P55789 whole entry): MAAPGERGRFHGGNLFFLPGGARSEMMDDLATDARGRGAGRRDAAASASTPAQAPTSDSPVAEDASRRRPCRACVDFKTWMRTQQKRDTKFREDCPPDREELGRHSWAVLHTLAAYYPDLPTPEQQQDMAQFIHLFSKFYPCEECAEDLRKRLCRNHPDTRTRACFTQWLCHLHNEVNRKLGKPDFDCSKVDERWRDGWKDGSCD
In a further assay the target is Cytochrome P450 3A4 (Homo sapiens, UniProt P08684). Particulars: Potency.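 Note: confirmatory qHTS run detecting inhibitors and substrates of CYP3A4.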
Sequence of Cytochrome P450 3A4 (P08684 whole entry): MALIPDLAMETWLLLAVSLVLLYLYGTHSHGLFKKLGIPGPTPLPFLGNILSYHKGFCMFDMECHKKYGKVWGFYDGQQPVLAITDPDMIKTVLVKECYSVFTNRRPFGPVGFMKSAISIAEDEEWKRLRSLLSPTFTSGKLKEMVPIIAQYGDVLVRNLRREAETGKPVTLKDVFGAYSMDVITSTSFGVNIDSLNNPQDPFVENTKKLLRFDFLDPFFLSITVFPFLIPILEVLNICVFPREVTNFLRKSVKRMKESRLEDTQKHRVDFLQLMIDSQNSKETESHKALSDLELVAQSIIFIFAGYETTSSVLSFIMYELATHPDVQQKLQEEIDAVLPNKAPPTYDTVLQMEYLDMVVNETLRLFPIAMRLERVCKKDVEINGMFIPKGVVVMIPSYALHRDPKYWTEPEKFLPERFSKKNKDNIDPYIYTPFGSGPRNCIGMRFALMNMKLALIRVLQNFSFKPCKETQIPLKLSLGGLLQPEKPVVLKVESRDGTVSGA
The target in another assay is Paired box protein Pax-8 (Homo sapiens, UniProt Q06710). Put plainly: PAX8 transcriptional activity inhibition in RMG-I – RMG-I cells, luciferase, cherry-pick, dose response (AID 687027).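 Note: luciferase reporter driven by Pax8 target thyroperoxidase promoter measured by SteadyGlo luminescence.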 The format is functional, cell-based.
Sequence of Paired box protein Pax-8 (Q06710 whole entry): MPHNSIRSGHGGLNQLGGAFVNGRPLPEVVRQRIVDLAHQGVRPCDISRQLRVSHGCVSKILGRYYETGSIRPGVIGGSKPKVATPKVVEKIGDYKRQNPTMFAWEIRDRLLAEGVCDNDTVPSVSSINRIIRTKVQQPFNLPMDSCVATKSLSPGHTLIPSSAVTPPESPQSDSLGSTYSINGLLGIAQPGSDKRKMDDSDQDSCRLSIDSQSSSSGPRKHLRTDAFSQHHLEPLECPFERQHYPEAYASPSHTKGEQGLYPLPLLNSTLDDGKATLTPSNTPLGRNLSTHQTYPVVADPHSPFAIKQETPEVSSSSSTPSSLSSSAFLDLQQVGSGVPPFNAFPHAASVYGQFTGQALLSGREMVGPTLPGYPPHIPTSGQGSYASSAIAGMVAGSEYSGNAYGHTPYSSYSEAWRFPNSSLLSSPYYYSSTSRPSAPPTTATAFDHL
Assay [10] can be described thus: OVCAR8 cell viability loss – plate reader, dry powder samples, PAX8 project, dose response (AID 743197). The format is functional, cell-based. As to conditions: OVCAR-8.
A short description of assay [11]: OVCAR-3 cell viability loss – plate reader, dry powder samples, PAX8 inhibitor project, dose response (AID 743044). The format is functional, cell-based.
The target of assay [12] is T2, Corticotropin-releasing factor receptor 2/Corticotropin-releasing factor-binding protein (Homo sapiens, UniProt P24387+Q13324).
T2 sequence (Q13324 whole entry): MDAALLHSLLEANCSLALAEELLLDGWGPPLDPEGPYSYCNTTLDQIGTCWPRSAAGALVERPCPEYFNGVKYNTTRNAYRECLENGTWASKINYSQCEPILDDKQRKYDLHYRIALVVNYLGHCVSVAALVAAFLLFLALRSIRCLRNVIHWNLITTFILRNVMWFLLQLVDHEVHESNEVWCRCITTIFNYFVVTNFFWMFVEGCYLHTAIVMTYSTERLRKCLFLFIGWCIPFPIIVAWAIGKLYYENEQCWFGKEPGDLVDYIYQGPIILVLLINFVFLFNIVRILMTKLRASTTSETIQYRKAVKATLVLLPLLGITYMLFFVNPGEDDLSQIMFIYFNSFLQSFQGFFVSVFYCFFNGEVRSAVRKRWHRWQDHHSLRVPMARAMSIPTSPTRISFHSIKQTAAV
T2 sequence (P24387 whole entry): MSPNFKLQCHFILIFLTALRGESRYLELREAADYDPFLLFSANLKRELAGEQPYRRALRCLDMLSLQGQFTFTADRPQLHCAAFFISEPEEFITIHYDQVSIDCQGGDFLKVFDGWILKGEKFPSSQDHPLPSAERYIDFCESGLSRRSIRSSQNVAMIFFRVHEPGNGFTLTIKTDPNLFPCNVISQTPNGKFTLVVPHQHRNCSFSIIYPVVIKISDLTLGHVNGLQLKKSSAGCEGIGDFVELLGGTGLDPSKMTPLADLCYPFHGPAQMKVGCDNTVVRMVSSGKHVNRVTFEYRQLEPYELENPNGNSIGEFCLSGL
Put plainly: activators of CRF receptor 2 with binding protein – uHTS hits, confirmation (AID 602473). As to conditions: read-out: EC50_Mean. The class given is functional.

Assay [13] has as its target T2, Corticotropin-releasing factor receptor 2/Corticotropin-releasing factor-binding protein. In words: Dose Response confirmation of uHTS hits for small molecule antagonists of the CRF-binding protein and CRF-R2 receptor complex. The format is functional. As to conditions: read-out: IC50_Mean.

Sequence of Luciferin 4-monooxygenase (P08659 whole entry): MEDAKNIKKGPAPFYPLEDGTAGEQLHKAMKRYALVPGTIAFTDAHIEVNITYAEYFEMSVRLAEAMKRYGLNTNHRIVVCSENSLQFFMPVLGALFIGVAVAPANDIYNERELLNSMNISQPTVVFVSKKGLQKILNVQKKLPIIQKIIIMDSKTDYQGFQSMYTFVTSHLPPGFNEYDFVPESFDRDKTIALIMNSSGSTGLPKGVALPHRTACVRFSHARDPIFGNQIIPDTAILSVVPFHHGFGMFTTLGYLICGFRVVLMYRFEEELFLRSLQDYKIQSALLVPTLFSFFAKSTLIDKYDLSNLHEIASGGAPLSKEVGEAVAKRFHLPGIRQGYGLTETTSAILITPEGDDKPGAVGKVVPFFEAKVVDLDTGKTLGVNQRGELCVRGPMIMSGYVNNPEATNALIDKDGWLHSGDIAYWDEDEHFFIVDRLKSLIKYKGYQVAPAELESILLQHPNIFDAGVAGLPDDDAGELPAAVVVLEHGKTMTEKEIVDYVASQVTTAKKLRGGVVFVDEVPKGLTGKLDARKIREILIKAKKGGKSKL

Consider `CCCCN(C)CCCNC(=O)c1cc(-c2cccs2)nc2ccccc12`, for which, in assay [1], the IC50 is > 20 µM (inactive). Also, the EC50 is > 60 µM (not active) in assay [2] and 0.183 µM (active) in assay [3]. `COCC#Cc1ccc2c(c1)O[C@H](CN(C)S(=O)(=O)c1cccc(F)c1)[C@@H](C)CN([C@H](C)CO)S2(=O)=O`: in assay [4], the AC50 is > 52 µM (inactive). For `C[C@@H]1CN([C@@H](C)CO)C(=O)c2cccc(NC(=O)Nc3ccc(C(F)(F)F)cc3)c2O[C@H]1CN(C)C(=O)Nc1ccc(C(F)(F)F)cc1`, in assay [5], the AC50 was 6.06 µM (active).

For the compound `CC(C)OC(=O)c1cc(C(=O)c2cc(Cl)ccc2O)coc1=N`, the IC50 in “cells” was 23.2 µM (active). As for `CCC(Oc1cc(Cl)ccc1Cl)C(=O)NNC(=O)CCC(=O)O` (stereo unspecified), the EC50 in assay [6] and in assay [7] was > 112 µM (not active) in each case. Turning to `COc1ccccc1S(=O)(=O)N(C)C[C@@H]1Oc2cc(C#CCC(C)C)ccc2S(=O)(=O)N([C@@H](C)CO)C[C@@H]1C`, the AC50 in assay [8] was 3.17 µM (active). For the compound `COc1ccc(N2CCN(c3ccc(C(=O)O)cc3[N+](=O)[O-])CC2)cc1`, in [9], the AC50 was 5.03 µM (active). On to `O=C(c1ccncc1)N1CCN(C(=O)c2cccc3ccccc23)CC1`, for which the EC50 is > 112 µM (not active) in assay [6] and 16.6 µM (active) in assay [7]. Consider `CCC(C)[C@H]1CN=C(N)N1CCc1cc(C(F)(F)F)cc(C(F)(F)F)c1` (stereo partly specified), for which, in [1], the IC50 was > 20 µM (inactive). For the compound `C[C@@H]1CCCCO[C@@H](CN(C)Cc2ccc(Cl)c(Cl)c2)[C@@H](C)CN([C@H](C)CO)C(=O)c2cc(NC(=O)CCC(F)(F)F)ccc2O1`, the AC50 in assay [5] is 3.1 µM (active). With `COC(=O)c1cc(-c2cccs2)nc2ccccc12`, in assay [1], the IC50 was > 20 µM (inactive). As to `COC(=O)[C@@H]1C[C@@]2(O)[C@H](O)[C@H](O)[C@H](O)C[C@H]2N1CC(c1ccccc1)c1ccccc1`, the AC50 at Cytochrome P450 3A4 was 20 µM (inconclusive). `COC(=O)c1ccc(=O)n(-c2ccc(OC)cc2)c1`: the EC50 in assay [6] and in [7] was > 112 µM (not active) in each case. For `Nc1ncc([N+](=O)[O-])cc1S(=O)(=O)c1ccccc1`, in assay [1], the IC50 is > 20 µM (inactive). `c1ccc2cc(OCCCn3ccnc3)ccc2c1`: the IC50 in the assay “cells” is 42.5 µM (active). The figures for the EC50 in assay [2] and in [3] were > 60 µM (not active) and 1.01 µM (active), respectively.

As to `Cc1nnc(NC(=O)c2ccc3ccccc3c2)o1`, the IC50 in “cells” is 1.64 µM (active).

In the case of `COc1ccc(NC(=O)N(C)C[C@@H]2Oc3cc(-c4ccc(C)cc4)ccc3S(=O)(=O)N([C@H](C)CO)C[C@H]2C)cc1`, the AC50 in assay [8] is 3.38 µM (active).

For the compound `CCC(C)Nc1nc2c(c(=O)n(C)c(=O)n2C)n1Cc1ccc(F)cc1` (stereo unspecified), in assay [9], the AC50 was 2.09 µM (active). Consider `COc1ccc(S(=O)(=O)Nc2ccc3c(c2)CC(=O)N([C@H](C)CO)C[C@@H](C)[C@@H](CN(C)Cc2ccc(Cl)c(Cl)c2)O3)cc1`, for which the AC50 in [5] was 3.78 µM (active).

For `C[C@@H]1CN([C@H](C)CO)C(=O)c2cc(NC(=O)Nc3cccc4ccccc34)ccc2O[C@@H]1CN(C)C(=O)Nc1cccc2ccccc12`, the figures for the AC50 (on Paired box protein Pax-8; in [10]; in assay [11]) were 6.15 µM (active), 46.1 µM (active) and 49.7 µM (active), respectively.

Turning to `CN1CCN(S(=O)(=O)c2cccc([N+](=O)[O-])c2)CC1`, the EC50 in [6] and in [7] was > 112 µM (not active) throughout.

For `C[C@H](CO)N1C[C@H](C)[C@H](CN(C)Cc2ccc(C(F)(F)F)cc2)Oc2ccc(NS(=O)(=O)c3ccc(Cl)cc3)cc2C1=O`, the AC50 in [5] was 4.5 µM (active). On to `Cc1c(N)cccc1N`, for which the AC50 at Cytochrome P450 3A4 is 15.8 µM (inconclusive). With `COc1cccc(CNC(=O)c2cc(S(=O)(=O)N3CCCC3)cn2C)c1`, the EC50 in assay [6] and in assay [7] was > 112 µM (not active) throughout. As to `COC(=O)c1cccc(C23CC4(C2)[C@H](CN(Cc2ccc(C(F)(F)F)cc2)[C@@H]4c2ccccc2)C3c2ccc(C(F)(F)F)cc2)c1` (stereo partly specified), the AC50 on Cytochrome P450 3A4 was 12.6 µM (inconclusive). Regarding `CC1=CC2=NC(=O)/C(=C\c3ccc(OC(=O)c4ccco4)cc3)C(=N)N2O1`, the IC50 in the assay “cells” was 21.8 µM (active). With `C#CCOCCOCCOCCNc1nc(N2CCN(C(=O)[C@H](CCCCN)n3cc([C@@H](N)[C@H](C)CC)nn3)CC2)nc(N2CCN(C(=O)[C@H](CCC(=O)O)n3cc([C@@H](N)CCCCN)nn3)CC2)n1`, the IC50 in [1] was > 20 µM (inactive).

For the compound `Cc1nc2sc(C(c3ccccc3)N3CCN(c4ccccc4F)CC3)c(O)n2n1` (stereo unspecified), the EC50 in [6] and in assay [7] was > 112 µM (not active) each time. For `COC(=O)c1c(C(=O)OC)c(-c2ccc(F)cc2)n2c1CSC2`, in [9], the concentration at half-maximal activity (AC50) is 0.218 µM (active). On to `C[C@H]1CN([C@@H](C)CO)C(=O)Cc2cc(NC(=O)NC3CCCCC3)ccc2O[C@@H]1CN(C)Cc1ccc(Cl)c(Cl)c1`, for which, in assay [5], the AC50 was 7.18 µM (active). Same read-out and setting: in the case of `C[C@@H]1CCCCO[C@@H](CN(C)Cc2ccc(Cl)c(Cl)c2)[C@@H](C)CN([C@H](C)CO)C(=O)c2cc(NC(=O)Nc3ccc(C(F)(F)F)cc3)ccc2O1` it was 2.84 µM (active). As to `CCC(=O)N1CC2(C1)CN(C(=O)Nc1ccccc1F)[C@H](CO)c1[nH]c3cc(OC)ccc3c12`, the AC50 in assay [8] was 15.9 µM (active).

`Cc1ccccc1C(=O)NN1CC(C(=O)OCc2ccc(Cl)c(Cl)c2)CC1=O` (stereo unspecified): the IC50 in the assay “cells” was 22.2 µM (active).

With `Cc1cc(O)c(C=O)c2c1C(=O)Oc1c(C)c(O)c3c(c1O2)C(O)OC3=O` (stereo unspecified) [NORSTICTIC ACID], at Cytochrome P450 3A4, the AC50 is 39.8 µM (inconclusive). For `C[C@@H]1CN([C@@H](C)CO)C(=O)c2cccc(NS(=O)(=O)c3ccccc3)c2O[C@H]1CN(C)Cc1ccc(-c2ccccc2)cc1`, the half-maximal activity concentration (AC50) in [5] was 1.39 µM (active). On to `C[C@@H]1CCCCO[C@H](CN(C)C(=O)Nc2ccc3c(c2)OCO3)[C@@H](C)CN([C@H](C)CO)C(=O)c2cc(NC(=O)Nc3ccc(C(F)(F)F)cc3)ccc2O1`, for which the AC50 in [5] was 2.56 µM (active). In the case of `C[C@@H]1CCCCO[C@H](CN(C)Cc2ccncc2)[C@H](C)CN([C@H](C)CO)C(=O)c2cc(NC(=O)Nc3ccc(C(F)(F)F)cc3)ccc2O1`, the AC50 at Paired box protein Pax-8 was 7.43 µM (active); in assay [11] it was 35.4 µM (active). As for `CN(C)c1ccc(/C(=N\O)c2ccccc2)cc1`, the AC50 in [9] is 1.64 µM (active). In addition, the EC50 in [12] is > 53 µM (inactive). For the same compound, the IC50 in [13] was > 47.1 µM (inactive). In the case of `COC(=O)[C@@H]1C[C@H]2CC[C@H](O)C[C@H]2N1Cc1ccc(N2CCOCC2)cc1`, the AC50 at Cytochrome P450 3A4 was 20 µM (inconclusive). As for `CN(C)c1ccc(CN(C(=O)c2ccccc2Br)C2CCS(=O)(=O)C2)cc1` (stereo unspecified), the AC50 in assay [9] is 1.88 µM (active). As to `CCN(CC(=O)Nc1ccccc1C(F)(F)F)C(=O)CCc1c(C)nc(O)c(C#N)c1C`, the EC50 is > 112 µM (not active) in assay [6] and 2.71 µM (active) in assay [7]. The matching figures for `COc1cc(CN2CCNC(=O)C2CC(=O)NCCCN2CCOCC2)cc(OC)c1` (stereo unspecified): > 112 µM (not active) and > 112 µM (not active). `Cc1ccc(C(=O)NCCN2C3=NC[C@H](Cc4ccc(O)cc4)N3C[C@H]2Cc2ccc(O)cc2)cc1Br`: the IC50 in assay [1] is > 20 µM (inactive). In the case of `CCCC(=O)Nc1ccc(-c2csc(NNC(C)=O)n2)cc1`, the AC50 in assay [9] is 0.859 µM (active).
